Source: paper PMC6399515 (Insect Biochemistry and Molecular Biology, 2016)

Assays:
CYP6P2 = biological target: T1, CYP6P2 (Anopheles gambiae, UniProt Q8T629, V81I); test: biochemical; settings: IC50 of DEF metabolism
T1 sequence (Q8T629 1-507 V81I): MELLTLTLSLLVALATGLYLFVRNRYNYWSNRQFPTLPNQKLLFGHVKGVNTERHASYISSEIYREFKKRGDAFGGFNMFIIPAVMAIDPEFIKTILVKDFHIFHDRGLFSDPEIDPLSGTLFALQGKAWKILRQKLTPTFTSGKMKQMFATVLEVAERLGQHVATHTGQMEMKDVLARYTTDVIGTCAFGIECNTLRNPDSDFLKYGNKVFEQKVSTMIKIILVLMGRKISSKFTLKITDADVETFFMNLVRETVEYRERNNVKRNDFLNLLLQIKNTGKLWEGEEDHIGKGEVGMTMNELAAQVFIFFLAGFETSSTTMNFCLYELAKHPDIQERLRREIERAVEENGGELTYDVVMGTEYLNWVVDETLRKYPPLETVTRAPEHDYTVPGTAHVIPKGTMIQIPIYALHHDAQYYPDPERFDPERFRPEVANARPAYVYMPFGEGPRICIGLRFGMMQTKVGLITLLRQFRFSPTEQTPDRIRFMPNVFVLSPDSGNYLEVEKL
T1 sequence (Q7QFI3 1-587 partner): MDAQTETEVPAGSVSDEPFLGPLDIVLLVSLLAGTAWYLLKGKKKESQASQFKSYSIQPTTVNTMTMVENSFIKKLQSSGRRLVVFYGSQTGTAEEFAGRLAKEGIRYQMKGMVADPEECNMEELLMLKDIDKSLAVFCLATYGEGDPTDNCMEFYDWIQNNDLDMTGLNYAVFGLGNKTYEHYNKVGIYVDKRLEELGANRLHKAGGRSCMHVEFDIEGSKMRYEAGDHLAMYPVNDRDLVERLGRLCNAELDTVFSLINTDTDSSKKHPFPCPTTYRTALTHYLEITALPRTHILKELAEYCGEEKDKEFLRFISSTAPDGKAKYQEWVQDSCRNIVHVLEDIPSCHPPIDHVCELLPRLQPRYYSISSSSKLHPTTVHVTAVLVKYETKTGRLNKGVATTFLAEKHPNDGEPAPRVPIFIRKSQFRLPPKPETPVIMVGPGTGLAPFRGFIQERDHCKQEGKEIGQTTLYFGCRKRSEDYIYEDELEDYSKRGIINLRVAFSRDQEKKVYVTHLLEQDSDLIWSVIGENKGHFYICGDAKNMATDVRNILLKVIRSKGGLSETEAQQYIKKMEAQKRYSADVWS
T1 sequence (Q86QH4 1-128 partner): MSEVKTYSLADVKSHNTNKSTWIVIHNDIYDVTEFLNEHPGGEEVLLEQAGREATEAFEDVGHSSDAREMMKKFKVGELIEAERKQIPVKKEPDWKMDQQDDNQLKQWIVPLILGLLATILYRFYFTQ

[1] = system: all mosquito P450s of the panel apart from CYP6Z2 (CYP6M2, CYP6P2, CYP6P3, CYP6P4, CYP9J5); test: in vitro; settings: Anopheles gambiae
CYP6M2 = CYP6M2 (Anopheles gambiae, UniProt Q7Q449); test: biochemical
CYP6M2, sequence (Q7Q449 1-499, one chain of several): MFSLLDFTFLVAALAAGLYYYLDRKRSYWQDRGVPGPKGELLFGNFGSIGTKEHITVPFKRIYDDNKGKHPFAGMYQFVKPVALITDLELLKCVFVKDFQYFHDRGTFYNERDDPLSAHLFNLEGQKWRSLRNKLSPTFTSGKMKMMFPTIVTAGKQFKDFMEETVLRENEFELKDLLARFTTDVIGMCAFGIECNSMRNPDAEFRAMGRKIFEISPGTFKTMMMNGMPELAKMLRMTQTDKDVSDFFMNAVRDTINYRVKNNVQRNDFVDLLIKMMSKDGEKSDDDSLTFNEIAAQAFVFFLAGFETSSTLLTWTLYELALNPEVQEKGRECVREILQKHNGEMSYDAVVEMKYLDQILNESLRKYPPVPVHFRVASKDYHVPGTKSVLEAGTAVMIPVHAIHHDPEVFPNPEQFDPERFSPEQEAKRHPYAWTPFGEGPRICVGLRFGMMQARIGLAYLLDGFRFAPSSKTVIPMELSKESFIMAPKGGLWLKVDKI

CYP6P3 = biological target: T2, CYP6P3 (Anopheles gambiae, UniProt Q8T632); test: biochemical
T2 sequence (Q8T632 1-509): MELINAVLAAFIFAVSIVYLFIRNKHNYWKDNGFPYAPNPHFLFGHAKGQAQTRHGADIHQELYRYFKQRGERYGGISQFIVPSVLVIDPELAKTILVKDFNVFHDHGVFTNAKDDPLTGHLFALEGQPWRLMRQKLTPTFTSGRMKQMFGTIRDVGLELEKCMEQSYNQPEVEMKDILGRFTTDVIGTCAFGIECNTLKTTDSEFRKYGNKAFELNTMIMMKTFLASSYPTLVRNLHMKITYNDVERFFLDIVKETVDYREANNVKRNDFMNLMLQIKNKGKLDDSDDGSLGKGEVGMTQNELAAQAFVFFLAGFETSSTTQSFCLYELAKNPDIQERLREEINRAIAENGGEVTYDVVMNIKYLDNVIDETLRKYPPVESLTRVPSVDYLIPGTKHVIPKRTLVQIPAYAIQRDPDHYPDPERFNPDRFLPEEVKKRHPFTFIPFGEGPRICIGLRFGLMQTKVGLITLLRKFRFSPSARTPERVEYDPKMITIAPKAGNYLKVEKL
T2 sequence (Q86QH5 1-679 partner): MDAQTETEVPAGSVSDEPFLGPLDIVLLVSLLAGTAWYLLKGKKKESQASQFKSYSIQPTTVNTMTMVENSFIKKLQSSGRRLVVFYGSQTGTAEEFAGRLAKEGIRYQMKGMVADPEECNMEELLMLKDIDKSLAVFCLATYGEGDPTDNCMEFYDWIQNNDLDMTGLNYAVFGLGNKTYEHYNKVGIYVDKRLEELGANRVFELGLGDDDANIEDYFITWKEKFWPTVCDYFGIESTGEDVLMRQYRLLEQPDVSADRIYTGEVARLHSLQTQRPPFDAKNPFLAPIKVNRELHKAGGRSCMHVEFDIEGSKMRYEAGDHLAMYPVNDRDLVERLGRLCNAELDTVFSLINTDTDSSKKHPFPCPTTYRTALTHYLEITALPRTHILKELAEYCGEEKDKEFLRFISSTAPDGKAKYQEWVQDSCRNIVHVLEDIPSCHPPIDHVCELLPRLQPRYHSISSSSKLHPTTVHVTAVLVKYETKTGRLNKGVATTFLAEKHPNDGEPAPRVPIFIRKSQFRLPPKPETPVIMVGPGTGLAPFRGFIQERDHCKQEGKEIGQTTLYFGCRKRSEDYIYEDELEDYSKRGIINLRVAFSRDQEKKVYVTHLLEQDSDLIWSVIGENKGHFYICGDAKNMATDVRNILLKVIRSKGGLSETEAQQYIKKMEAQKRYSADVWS
T2 sequence (Q86QH4 1-128 partner): T1 sequence (Q86QH4 1-128 partner)

CYP9J5 = biological target: T3, CYP9J5 (Anopheles gambiae, UniProt Q5TN57); test: biochemical
T3 sequence (Q5TN57 1-545): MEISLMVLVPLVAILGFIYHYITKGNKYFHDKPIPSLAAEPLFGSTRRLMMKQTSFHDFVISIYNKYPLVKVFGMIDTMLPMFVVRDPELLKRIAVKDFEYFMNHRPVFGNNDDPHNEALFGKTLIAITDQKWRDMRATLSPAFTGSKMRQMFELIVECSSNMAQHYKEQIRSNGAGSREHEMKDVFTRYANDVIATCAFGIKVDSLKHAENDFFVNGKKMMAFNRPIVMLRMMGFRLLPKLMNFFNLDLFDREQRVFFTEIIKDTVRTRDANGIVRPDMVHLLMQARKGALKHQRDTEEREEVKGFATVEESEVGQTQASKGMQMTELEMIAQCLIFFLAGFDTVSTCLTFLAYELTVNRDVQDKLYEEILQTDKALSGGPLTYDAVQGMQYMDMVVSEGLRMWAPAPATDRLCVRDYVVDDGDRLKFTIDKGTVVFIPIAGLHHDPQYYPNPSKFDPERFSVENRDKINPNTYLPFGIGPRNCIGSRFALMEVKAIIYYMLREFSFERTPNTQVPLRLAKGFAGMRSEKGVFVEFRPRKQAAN
T3 sequence (Q86QH5 1-679 partner): T2 sequence (Q86QH5 1-679 partner)
T3 sequence (Q86QH4 1-128 partner): T1 sequence (Q86QH4 1-128 partner)

CYP6Z2 = biological target: T4, CYP6Z2 (Anopheles gambiae, UniProt A8I285); test: biochemical
T4 sequence (A8I285 1-492): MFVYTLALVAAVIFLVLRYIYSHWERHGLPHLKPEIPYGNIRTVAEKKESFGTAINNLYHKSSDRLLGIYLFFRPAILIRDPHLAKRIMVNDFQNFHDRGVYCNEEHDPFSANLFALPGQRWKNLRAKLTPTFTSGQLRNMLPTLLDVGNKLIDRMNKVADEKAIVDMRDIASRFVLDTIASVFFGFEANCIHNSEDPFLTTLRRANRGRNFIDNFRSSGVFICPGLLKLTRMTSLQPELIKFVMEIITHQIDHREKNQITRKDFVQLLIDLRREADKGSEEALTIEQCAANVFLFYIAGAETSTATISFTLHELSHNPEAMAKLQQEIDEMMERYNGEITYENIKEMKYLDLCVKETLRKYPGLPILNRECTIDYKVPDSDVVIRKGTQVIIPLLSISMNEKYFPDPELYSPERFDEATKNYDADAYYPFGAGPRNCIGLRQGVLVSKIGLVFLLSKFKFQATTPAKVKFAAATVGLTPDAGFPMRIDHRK
T4 sequence (Q86QH5 1-679 partner): T2 sequence (Q86QH5 1-679 partner)
T4 sequence (Q86QH4 1-128 partner): T1 sequence (Q86QH4 1-128 partner)

CC1(C)[C@H](C(=O)O[C@H](C#N)c2cccc(Oc3ccccc3)c2)[C@@H]1C=C(Br)Br [Deltamethrin, (S)-α-cyano-3-phenoxybenzyl (1R,3R)-cis-2,2-dimethyl-3-(2,2-dibromovinyl)-cyclopropanecarboxylate]
IC50 (CYP6P2): 4.97 µM
IC50 ([1]; pH 7.4, IC50 of DEF activity): 1 to 10 µM
IC50 ([1]; pH 7.4, category of inhibition of DEF activity): 1 to 10 µM
IC50 (CYP6M2): 4.24 µM
IC50 (CYP6P3): 3.17 µM
IC50 (CYP9J5): 6.05 µM
IC50 (CYP6Z2; IC50 of DEF metabolism): 14 µM
IC50 (CYP6Z2; category of inhibition of DEF metabolism): > 10 µM
